Data published in PMC7765388, “Synthesis and In Vitro Antiprotozoan Evaluation of 4-/8-Aminoquinoline-based Lactams and Tetrazoles” (Molecules, 2020).
Read-outs that look alike come from different tables or passages of the source.

Assays:
P. falciparum K1 strain = test: In vitro antiplasmodium activity, 3H-hypoxanthine incorporation assay; type: cell-based, Plasmodium falciparum; conditions: for IC50: read-out: P. falciparum K1 IC50; for Selectivity Indices (SI) [(IC50 L6 Cell Line)/(IC50 K1 strain)]: L6 vs K1
Method: (§1) Antiplasmodial activity on the K1 strain, antitrypanosomal activity on T. b. brucei rhodesiense STIB900 and cytotoxicity on the L6 mammalian cell-line were all carried out at the Swiss Tropical and Public Health Institute (STPH), Switzerland as follows:
In vitro activity against erythrocytic stages of P. falciparum was determined using a ^3H-hypoxanthine incorporation assay, using the chloroquine and pyrimethamine-resistant K1 strain that originates from Thailand and the standard drug chloroquine (Sigma C6628). Compounds were dissolved in DMSO at 10 mg/mL and added to parasite cultures incubated in RPMI 1640 medium without hypoxanthine, supplemented with HEPES (5.94 g/L), NaHCO3 (2.1 g/L), neomycin (100 U/mL), Albumax^R (5 g/L) and washed human red cells A^+ at 2.5% hematocrit (0.3% parasitemia). Serial drug dilutions of eleven three-fold dilution steps covering a range from 100 to 0.002 μg/mL were prepared. The 96-well plates were incubated in a humidified atmosphere at 37 °C; 4% CO2, 3% O2, 93% N2. After 48 h, 50 μL of ^3H-hypoxanthine (= 0.5 μCi) was added to each well of the plate. The test compounds were tested in triplicate ad parasite growth compared to control or blank well. The plates were incubated for a further 24 h under the same conditions. The plates were then harvested with a Betaplate™ cell harvester (Wallac, Zurich, Switzerland), and the red blood cells transferred onto a glass fiber filter then washed with distilled water. The dried filters were inserted into a plastic foil with 10 mL of scintillation fluid and counted in a Betaplate™ liquid scintillation counter (Wallac, Zurich, Switzerland). IC50 values were calculated from sigmoidal inhibition curves by linear regression using Microsoft Excel.

[1] = test system: Trypanosoma brucei rhodesiense STIB900; test: In vitro antitrypanosomal activity, alamarBlue assay; type: cell-based; conditions: STIB900 bloodstream forms, 70 h + 2-4 h alamarBlue, read-out: T. b. brucie T. b. rhod IC50
Method: as §1
This stock was isolated in 1982 from a human patient in Tanzania and, after several mouse passages, was cloned and adapted to axenic culture conditions. Minimum essential medium (50 µL) supplemented with 25 mM HEPES, 1 g/L additional glucose, 1% MEM non-essential amino acids (100×), 0.2 mM 2-mercaptoethanol, 1 mM Na-pyruvate and 15% heat-inactivated horse serum was added to each well of a 96-well microtiter plate. Serial drug dilutions of eleven three-fold dilution steps covering a range from 100 to 0.002 μg/mL were prepared. Then, 4 × 10^3 bloodstream forms of T. b. rhodesiense STIB 900 in 50 µL was added to each well and the plate incubated at 37 °C under a 5% CO2 atmosphere for 70 h. 10 µL alamarBlue (resazurin, 12.5 mg in 100 mL double-distilled water) was then added to each well and incubation continued for a further 2–4 h. Then the plates were read with a Spectramax Gemini XS microplate fluorometer (Molecular Devices Cooperation, Sunnyvale, CA, USA) using an excitation wavelength of 536 nm and an emission wavelength of 588 nm. The test compounds were tested in triplicate, and their IC50 values were calculated by linear regression from the sigmoidal dose inhibition curves using Softmax Pro software (Molecular Devices Cooperation, Sunnyvale, CA, USA).

[2] = Aqueous kinetic solubility; type: physicochemical
Method: A 10 mM stock of the compound was diluted in DMSO to give standard solutions at 220 µM, 100 µM and 10 µM in a 96 well plate as described previously. The 10 mM stock was then spiked 1:50 in phosphate-buffered saline pH 7.0 to give a final DMSO concentration of 2%. Both the standard and sample solutions were plated in triplicate. After shaking for 2 h at 25 °C, the solutions were filtered and analyzed on an Agilent 1200 series HPLC with DAD detection. The solubility of the test compounds was determined by comparing the peak area of the sample solutions to that of the standard solutions.

[3] = In vitro cytotoxicity with L-6 cells, alamarBlue assay; type: cell-based; conditions: rat, L6 cells, 70 h + 2 h alamarBlue, read-out: Cytotoxicity L6 Cell Lines IC50
Method: as §1
Assays were performed in triplicate in 96-well microtiter plates, each well containing 100 μL of RPMI 1640 medium supplemented with 1% L-glutamine (200 mM) and 10% fetal bovine serum, and 4000 L-6 cells (a primary cell line derived from rat skeletal myoblasts). Serial drug dilutions of eleven three-fold dilution steps covering a range from 100 to 0.002 μg/mL were prepared. After 70 h of incubation, the plates were inspected under an inverted microscope to assure the growth of the controls and sterile conditions. 10 μL of alamarBlue was then added to each well, and the plates incubated for another 2 h. Then the plates were read with a Spectramax Gemini XS microplate fluorometer (Molecular Devices Cooperation, Sunnyvale, CA, USA) using an excitation wavelength of 536 nm and an emission wavelength of 588 nm. The IC50 values were calculated by linear regression from the sigmoidal dose inhibition curves using Softmax Pro software (Molecular Devices Cooperation, Sunnyvale, CA, USA).

[4] = multidrug-resistant (chloroquine and pyrimethamine-resistant) K1 strain, erythrocytic stages, 72 h
[5] = Plasmodium falciparum, K1, 72 h
[6] = Plasmodium falciparum, multidrug-resistant (chloroquine and pyrimethamine-resistant) K1 strain, erythrocytic stages, 72 h
[7] = L-6 cells (rat skeletal myoblasts)
[8] = aqueous buffer, kinetic from dmso stock, phosphate-buffered saline pH 7.0, 2% DMSO, 2 h at 25 °C

Molecule	IC50 (P. falciparum K1 strain; [4]) [µM]	IC50 [1] [µM]	Selectivity Indices (SI) [(IC50 L6 Cell Line)/(IC50 K1 strain)] (P. falciparum K1 strain)	IC50 (P. falciparum K1 strain; [6]) [µM]	IC50 ([1]; Trypanosoma brucei) [µM]	IC50 at 72 h [3, 7] [µM]	further results
1-[2-(7-Chloroquinolin-4-ylamino)ethyl]-3-methoxy-4-(4-methoxyphenyl)azetidin-2-one [Compound 4b]	0.62	52.9	–	–	–	–	–
1-[2-(7-Chloroquinolin-4-ylamino)ethyl]-3-methoxy-4-p-tolylazetidin-2-one [Compound 4c]	0.58	52.5	–	–	–	–	–
1-[2-(7-Chloroquinolin-4-ylamino)ethyl]-4-(4-chlorophenyl)-3-methoxyazetidin-2-one [Compound 4e]	0.3	7.01	–	–	–	–	solubility kinetic at 2 h ([2]; pH 7): >200 µM
CCN(CC)CCCC(C)Nc1ccnc2cc(Cl)ccc12 (stereo not shown) [Chloroquine, reference compound]	–	–	–	–	–	–	IC50 (P. falciparum K1 strain; [5]): 0.22 µM
COC1C(=O)N(CCNc2ccnc3cc(Cl)ccc23)C1c1ccccc1 (stereo not shown) [Compound 4a, 1-[2-(7-Chloroquinolin-4-ylamino)ethyl]-3-methoxy-4-phenylazetidin-2-one]	–	–	211	0.47	53.2	98.5	solubility kinetic at 2 h [2, 8]: > 200 µM
COC1C(=O)N(CCNc2ccnc3cc(Cl)ccc23)C1c1ccc(Cl)c(Cl)c1 (stereo not shown) [Compound 4d, 1-[2-(7-Chloroquinolin-4-ylamino)ethyl]-4-(3,4-dichlorophenyl)-3-methoxyazetidin-2-one]	–	–	43	0.2	19	8.54	–
COC1C(=O)N(CCCNc2ccnc3cc(Cl)ccc23)C1c1ccccc1 (stereo not shown) [Compound 4f, 1-[3-(7-Chloroquinolin-4-ylamino)propyl]-3-methoxy-4-phenylazetidin-2-one]	–	–	25	0.57	16.1	14.4	–
COC1C(=O)N(CCCCNc2ccnc3cc(Cl)ccc23)C1c1ccccc1 (stereo not shown) [Compound 4g, 1-[4-(7-Chloroquinolin-4-ylamino)butyl]-3-methoxy-4-phenylazetidin-2-one]	–	–	9	0.31	20	2.87	solubility kinetic at 2 h [2, 8]: > 200 µM
COc1cccc(C(NCCCC(C)Nc2cc(OC)cc3cccnc23)c2nnnn2C(C)(C)C)c1 (stereo not shown) [Compound 6b]	–	–	38	1.98	14.2	75.5	–
COc1cc([C@@H]2c3cc4c(cc3[C@H](O)[C@H]3COC(=O)[C@H]23)OCO4)cc(OC)c1OC [Podophyllotoxin, reference compound]	–	–	–	–	–	–	IC50 at 72 h [3]: 0.0193 µM
COc1cc(NC(C)CCCN)c2ncccc2c1 (stereo not shown) [Primaquine, reference compound]	–	–	–	–	–	–	IC50 (P. falciparum K1 strain; [5]): 0.64 µM
N-{5-[(1-tert-butyl-1H-tetrazol-5-yl)(3,4-dichlorophenyl)methylamino]pentan-2-yl}-6-methoxyquinolin-8-amine [Compound 6d]	1.31	18.3	–	–	–	–	solubility kinetic at 2 h ([2]; pH 7): <5 µM
N-{5-[(1-tert-butyl-1H-tetrazol-5-yl)(4-chlorophenyl)methylamino]pentan-2-yl}-6-methoxyquinolin-8-amine [Compound 6e]	1.8	21.4	–	–	–	–	solubility kinetic at 2 h ([2]; pH 7): <15 µM
N-{5-[(1-tert-butyl-1H-tetrazol-5-yl)(p-tolyl)methylamino]pentan-2-yl}-6-methoxyquinolin-8-amine [Compound 6c]	1.57	18.5	–	–	–	–	solubility kinetic at 2 h ([2]; pH 7): <5 µM
N-{5-[(1-tert-butyl-1H-tetrazol-5-yl)(phenyl)methylamino]pentan-2-yl}-6-methoxyquinolin-8-amine [Compound 6a]	2.47	18.1	–	–	–	–	–
